# Test results from patent publication US4916118A, “Pharmaceutical administration systems containing chemotactic peptides” (Board of Regents, The University of Texas System, priority 1987, dated 1990).
# What was measured:
# [1] = test system: mouse peritoneal macrophages; test: In-vitro assay of macrophage mediated cytotoxicity ([125I]IdUrd radioactive release assay); assay type: cell-based
# Procedure: FMLP was purchased from Sigma Chemical Co. The stock solution (10 mM) was made in methanol and stored at -70° before use. For free form use, the stock solution was diluted to concentrations between 10^-4 M and 10^-7 M with CMEM containing 5% FBS. […]
# Macrophage mediated cytotoxicity was assessed by a radioactive release assay as described in Sone S. and Fidler I. J., Cell Immunology 57, 42 (1981). Target cells in exponential growth phase were incubated for 24 h in medium supplemented with [^125 I]IdUrd (0.2 μCi/ml; specific activity, 200 mCi/mmol; New England Nuclear, Boston, Mass.). The cells then were washed 3 times with warm HBSS to remove unbound radiolabel, harvested by a short trypsinization (0.25% Difco trypsin and 0.02% EDTA for 1 min at 37°), and resuspended in CMEM containing 5% FBS. Viable cells were plated into the wells containing macrophages to achieve a population density of 2500 macrophages and 250 tumor cells per sq mm (or an initial macrophage:target cell ratio of 10/1). At this population density, normal (untreated) macrophages are not cytotoxic to neoplastic cells. No significant differences were detected in the plating efficiency (binding) of [^125 I]IdUrd-labeled target cells to control or liposome-treated macrophage populations. Radiolabeled target cells also were plated alone as an additional control group. The macrophage-target cell cultures were refed with medium 24 h after the addition of the target cells to remove all nonplated cells and then were incubated for up to 3 days at 37°. At this time, the cultures were washed twice with HBSS to remove […], and the remaining viable, adherent cells were lysed with 0.1 ml of 0.1N NaOH. The lysate was absorbed in a cotton swab and placed directly into 10×75 mm tubes; radioactivity was measured in a gamma counter. […] The cytotoxic activity of the macrophages was calculated as follows: [formula] Experimental results were analyzed for their statistical significance by Student's 2-tailed t test.
# [2] = test system: mouse peritoneal macrophages; test: as above; assay type: cell-based; settings: for cpm +/- S.D.: 10^-8 M FMLP, radioactivity of remaining viable target tumor cells
smiles,measurement,setting,value
"CSCC[C@H](NC=O)C(=O)N[C@@H](CC(C)C)C(=O)N[C@@H](Cc1ccccc1)C(=O)O [Free FMLP, N-formyl-L-methionyl-L-leucyl-L-phenylalanine]",cpm +/- S.D.,"[1]; 10^-4 M FMLP, Expt. I",2478 + 74 cpm
same,cpm +/- S.D.,"[1]; 10^-4 M FMLP, Expt. II",2263 + 361 cpm
same,cpm +/- S.D.,"[1]; 10^-5 M FMLP, Expt. I",2619 + 82 cpm
same,cpm +/- S.D.,"[1]; 10^-5 M FMLP, Expt. II",2455 + 106 cpm
same,cpm +/- S.D.,"[1]; 10^-6 M FMLP, Expt. I",2633 + 61 cpm
same,cpm +/- S.D.,"[1]; 10^-6 M FMLP, Expt. II",2408 + 32 cpm
same,cpm +/- S.D.,"[1]; 10^-7 M FMLP, Expt. I",2559 + 109 cpm
same,cpm +/- S.D.,"[1]; 10^-7 M FMLP, Expt. II",2298 + 178 cpm
same,cpm +/- S.D.,[2]; Expt. I,2567 + 70 cpm
same,cpm +/- S.D.,[2]; Expt. II,2441 + 32 cpm
same,activation of mouse macrophages to lyse target tumor cells,"[2]; all FMLP concentrations (10^-8 to 10^-4 M), 72 hours of co-cultivation",ineffective in rendering macrophages tumoricidal
